Entries after “also recorded” stand apart in the source; their conditions may differ. Where a SMILES comes first, the peptide text is derived from it. [ ]: non-standard residue; d: D form.
What was measured:
S. aureus biofilm = assay: Crystal Violet staining of S. aureus biofilm (24 h batch growth); assay type: cell-based, Staphylococcus aureus; conditions: 24 h batch growth in microtiter plates; 0.5% w/v Crystal Violet, absorbance at 550 nm; strain not stated; peptide 80 μM unless otherwise noted
Protocol: We employed two S. aureus strains—SH1000 WT, a rsbU ^+ laboratory strain,[27] and MN8, a clinical strain isolated from the human urogenital tract[28] (Supplementary Table S2). First we confirmed that the cells formed biofilms by batch growth of the bacteria in microtiter plates through staining with Crystal Violet dye after 24 h. Application of our AP90 α-sheet design led to a 54% reduction in biofilm. As crystal violet is a crude measure of the extent of biofilm formation, we assessed amyloid fibril formation in the biofilms by adapting the conventional Thioflavin T (ThT) amyloid fibril assay for use in live cells. After 24 h of batch growth in microtiter plates, the biofilms were washed and incubated with ThT, and the resulting fluorescence signals served as a proxy for the extent of fibril formation in the EM (Fig. 1a). Next, we utilized this assay to test the α-sheet inhibitor designs and control peptides described above (sequences provided in Supplementary Table S1). […]
ThT, an established fluorescent label for amyloid fibrils,[43] was then added to each well at a concentration of 22 μM and biofilms were incubated statically for 4 h at room temperature. […] Fluorescence measurements were corrected by subtracting the background intensity of identical samples without ThT (in the case of the biofilms) or PSMα1 (for the in vitro measurements). […]

[1] = tested on: S. aureus MN8 biofilm amyloid; assay: ThT fluorescence assay of amyloid in MN8 biofilms; assay type: cell-based, Staphylococcus aureus MN8; conditions: 24 h
Protocol: (§1) Fig. 1 Screening of designed peptides for inhibition of amyloid formation in S. aureus biofilms. a Schematic of protocol for testing designed α-sheet peptides in S. aureus biofilm cultures with an illustration of the main-chain structure of the AP90 α-sheet design. b A panel of designed α-sheet peptides (AP90, AP401, and AP407), as well as random coil (RC) and β-hairpin controls (β), was tested against two S. aureus strains, MN8 (hashed bars) and SH1000 WT (white bars). […] Error bars in b and c represent the standard error of the mean for experiments performed in triplicate […]
(§2) ThT, an established fluorescent label for amyloid fibrils,[43] was then added to each well at a concentration of 22 μM and biofilms were incubated statically for 4 h at room temperature. […] Plates were shaken at high speed for 1 min on a plate shaker to detach any remaining biofilm material and homogenize the samples, which were then transferred to a 96-well black-walled plate (Corning, TC-treated polystyrene) and ThT fluorescence was measured using an excitation wavelength of 438 nm and emission at 495 nm on a Perkin–Elmer Enspire plate reader (hereafter referred to as the plate reader). Fluorescence measurements were corrected by subtracting the background intensity of identical samples without ThT (in the case of the biofilms) or PSMα1 (for the in vitro measurements). […]

[2] = tested on: S. aureus SH1000 WT biofilm amyloid; assay: ThT fluorescence assay of amyloid in SH1000 WT biofilms; assay type: cell-based, Staphylococcus aureus SH1000 WT; conditions: 80 μM peptide, 24 h, 37 °C
Protocol: as §1, §2

[3] = tested on: S. aureus SH1000 WT biofilm PSM amyloid fibrils; assay: TEM of biofilms for extracellular fibril deposits; assay type: cell-based, Staphylococcus aureus SH1000 WT; conditions: 80 μM AP90, biofilms grown 24 h
Protocol: To further investigate the ability of designed peptides to inhibit PSM amyloid formation, fluorescent (mCherry) S. aureus MN8 biofilms were grown in culture plates with glass bottom wells with or without α-sheet inhibitors. After 24 h at 37 °C the biofilms were gently rinsed with pipetted saline to remove unattached biomass and the remaining attached cells were fixed and imaged. A robust biofilm formed on the glass at the bottom of each well in LB medium alone (Fig. 2a); in contrast, there was significant disruption of the biofilm in the presence of the α-sheet compounds. […] Quantification of the images is presented in Supplementary Fig. S2. […] Addition of anti-α-sheet peptides triggered a significant reduction in PSM amyloid formation as measured by ThT fluorescence, which presumably weakened the S. aureus biofilms and their attachments by reducing the PSM amyloid fibril content of the EM. […]
Fig. 2 S. aureus biofilm structures become less robust when grown in the presence of designed peptide inhibitors. a S. aureus MN8 + mCherry biofilms were grown on glass substrates for 24 h and then cells were washed and fixed. […] For quantification of the images see Supplementary Fig. S2. b In S. aureus SH1000 WT biofilms grown in regular LB medium, PSM amyloid fibrils were visible as deposits in spaces between cells (left).
Images were analyzed using Gwyddion software (Czech Metrology Institute).

synthetic PSMα1 [4] = assay: PSMα1 fibrillization assay with added inhibitors (ThT), water; assay type: biochemical, Staphylococcus aureus; conditions: 30 μM PSMα1, inhibitor at 4:1 molar ratio, 0.34% v/v DMSO in ddH2O, pH 5, 37 °C, ThT 22 μM; SEM of 3–6 replicates; vs peptide-free control
Excerpt: (§3) Two different solvent conditions were used (0.34% DMSO in water, blue bars; LB medium + 0.34% DMSO, red bars) and aggregation was monitored by ThT fluorescence. Inhibition values for each peptide are reported as a percentage of the peptide-free control samples (0% inhibition). […] Fluorescence values in NaCl solution were quite high, so its curve is shown as an inset.

synthetic PSMα1 [5] = assay: PSMα1 fibrillization assay with added inhibitors (ThT), LB medium; assay type: biochemical, Staphylococcus aureus; conditions: LB medium + 0.34% DMSO, 37 °C
Excerpt: as §3

PSMα1 [6] = target: T1, PSMα1 (Staphylococcus aureus, UniProt A9JX05); assay type: binding; conditions: fresh (0 h), pre-incubated (48 h) and fibrillar (165 h) PSMα1; 2 h, 25 °C; GndHCl elution; NanoOrange fluorescence; six samples
T1 construct: synthetic PSMα1 (f[…], where f denotes formylation, Ontores Biotechnologies); purchased Ontores Biotechnologies; host or cells: chemical synthesis
T1 sequence (A9JX05 whole entry, looked up): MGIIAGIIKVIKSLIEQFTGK
Protocol: To further probe the interactions between PSMα1 and the designed α-sheet peptides, we immobilized AP90 on agarose beads and applied solutions of either (a) fresh (completely solubilized), (b) pre-incubated, (allowed to aggregate as in Fig. 6a for 48 h corresponding to α-sheet oligomer species) or (c) fibrillar PSMα1. The bead mixtures were contained within a micro-spin column, so the system was treated as a packed bed reactor and a series of phosphate buffered saline (PBS) washes was used to remove unbound material. The PSMα1 content of each wash was measured with a fluorescence-based assay. PSMα1 bound to immobilized AP90 was eluted with high guanidinium hydrochloride (GndHCl).
Meanwhile, PSMα1 samples were prepared as above (see “PSM fibrillization assay”) and incubated at 37 °C. […] FT and the washes (W1-W7) were analyzed with the NanoOrange® Protein Quantitation Kit (Thermo Fisher Scientific). […] This approach was necessary because elution of bound PSMα1 with GndHCl obscures protein quantification, and unfortunately, the inability to quantify the GndHCl bound fractions prevents confirmation of the mass balance. […]
were alternated with PBS washes (W8-W13). All eluents were then analyzed with the
NanoOrange® Protein Quantitation Kit and fluorescence was used as an indicator of
PSMα1 content in each eluent. Fluorescence measurements were normalized by the […]

PSMα1 [7] = target: T1, PSMα1; assay: Biolayer interferometry, AP90 on sensor tip, PSMα1 in solution; assay type: binding; conditions: PSMα1 α-sheet-rich (~48 h) vs α-helix-rich (~0 h) or β-sheet-rich (~150 h)
Protocol: The binding was explored further using biolayer interferometry, which analyzes interference patterns based on adsorption of samples to a biosensor tip.
All biolayer interferometry experiments were performed on a BLItz biosensor system (ForteBio, Pall) using aminopropylsilane (APS) sensors. Sensors were hydrated in ddH2O + 22 μM ThT for 10 min prior to use; ThT was included to mirror the conditions of the corresponding aggregation curves.

[8] = CD spectroscopy of designed and control peptides; assay type: physicochemical; conditions: 100 µM (RC 30 µM), phosphate buffer (β and AP193: acetate buffer), room temperature
Protocol: AP407 is a variant of AP90 with a disulfide bond. […] An unstructured random coil peptide (RC) and a β-sheet hairpin (β) are used as structural controls.[25], [26]
CD spectra of RC, β, AP90, AP401, AP407, and AP193. Peptides were
dissolved to a concentration of 100 µM (except for RC, which was 30 µM) in phosphate
buffer (except for β and AP193, which were in acetate buffer) and spectra were
acquired at room temperature. […] MRE = mean residue ellipticity.

[9] = ref [25]; cited from earlier work
Excerpt: In addition, the structural properties of the peptide provide a benchmark, or spectroscopic signature, for α-sheet structure, which can be used to interpret spectra of amyloid species. The main α-sheet design used here is AP90 (Alternating Peptide #90, referred to as α1 previously, [26]), but we also tested several other designs (Supp ...

Structure (SMILES): CSCC[C@H](NC(=O)[C@@H](CCCCN)NC(=O)[C@H](CC(C)C)NC(=O)[C@@H](CC(N)=O)NC(=O)[C@H](CCSC)NC(=O)[C@H](NC(=O)[C@H](Cc1c[nH]c2ccccc12)NC(=O)CNC(=O)[C@H](CO)NC(=O)[C@H](Cc1ccc(O)cc1)NC(=O)[C@H](CCC(=O)O)NC(=O)[C@H](CC(N)=O)NC(=O)[C@H](CCSC)NC(=O)[C@@H](Cc1c[nH]c2ccccc12)NC(=O)[C@H](CO)NC(=O)[C@@H](CC(C)C)NC(=O)[C@H](CC(N)=O)NC(=O)[C@@H](CCSC)NC(=O)[C@H](CCC(=O)O)NC(=O)CNC(=O)[C@H](CCCNC(=N)N)NC(C)=O)[C@H](C)O)C(=O)NCC(=O)N[C@@H](CCCNC(=N)N)C(N)=O [AP90] (Ac-RGE[dM]N[dL]S[dW]MNEYSGW[dT]M[dN]L[dK]MGR-NH2)
- reduction in biofilm (Crystal Violet) (S. aureus biofilm): 54%
- effect on amyloid fibril formation (ThT), in words ([1]; 80 μM peptide, 37 °C, effect particularly for the MN8 clinical isolate): significant reduction in amyloid fibril formation
- dose-response of biofilm amyloid content (ThT), in words ([1]; increasing concentrations of AP90 in culture medium): fibril formation decreased in a dose-dependent manner; also recorded: significant decrease in EM amyloid content as the concentration of AP90 is increased
- effect on amyloid fibril formation (ThT), in words [2]: significant reduction in amyloid fibril formation
- reduction of amyloid fibril formation (ThT) ([2]; LB Lennox, ThT 22 μM, ex 438 / em 495 nm, vs peptide-free control, experiments in triplicate): ~ 30%
- extracellular PSM fibril deposits by TEM [3]: amyloid fibrils could not be found; also recorded: no extracellular fibril deposits were observed; also recorded: no amyloid fibrils were visible
- inhibition of PSMα1 amyloid formation (synthetic PSMα1 [4]): 81 ± 5%
- inhibition of PSMα1 fibril formation (synthetic PSMα1 [5]; 30 μM PSMα1, 1:4 PSMα1:inhibitor, ThT 22 μM, SEM of 3–6 replicates, vs peptide-free control): 73 ± 11%
- effect on PSMα1 fibril formation, in words (synthetic PSMα1 [5]; 30 μM PSMα1, 1:4 PSMα1:peptide): inhibited fibril formation to nearly the same extent as in water; also recorded: inhibition by AP90 persisted
- binding of PSMα1 samples to immobilized AP90 (PSMα1 [6]): more of the oligomer sample bound to the column than fresh or fibrillar material
- binding preference by KD, in words (PSMα1 [7]): preferential binding between AP90 and α-sheet-rich PSMα1 (~48 h)
- CD spectrum (secondary structure) [8]: featureless spectrum, except for negative ellipticity in the so-called random coil region around 195–200 nm
- secondary structure by CD, FTIR and 2D NMR [9]: does not adopt conventional secondary structure

Source: publication PMC5495782, “Designed α-sheet peptides suppress amyloid formation in Staphylococcus aureus biofilms” (NPJ Biofilms and Microbiomes, 2017)
